In brackets after ≈: the same amount, converted by molar mass.
Experiments:
Assay type in all cases: functional
Staphylococcus aureus [1] = test: Antimicrobial activity against methicillin-resistant Staphylococcus aureus 334/08 after 18 hrs by disc-diffusion method; conditions: 334/08, 18 h
Staphylococcus aureus [2] = test: Antimicrobial activity against methicillin-resistant Staphylococcus aureus 333/08 after 18 hrs by disc-diffusion method; conditions: 333/08, 18 h
Staphylococcus aureus [3] = test: Antimicrobial activity against methicillin-susceptible Staphylococcus aureus 324/08 after 18 hrs by disc-diffusion method; conditions: 324/08, 18 h
[4] = tested on: Staphylococcus epidermidis; test: Antimicrobial activity against methicillin-resistant Staphylococcus epidermidis 290/08 after 18 hrs by disc-diffusion method; conditions: 290/08, 18 h
Staphylococcus aureus [5] = test: Antimicrobial activity against methicillin-resistant Staphylococcus aureus 330/08 after 18 hrs by disc-diffusion method; conditions: 330/08, 18 h
[6] = tested on: Staphylococcus epidermidis; test: Antimicrobial activity against methicillin-resistant Staphylococcus epidermidis 316/08 after 18 hrs by disc-diffusion method; conditions: 316/08, 18 h
Staphylococcus aureus [7] = test: Antimicrobial activity against methicillin-resistant Staphylococcus aureus 307/08 after 18 hrs by disc-diffusion method; conditions: 307/08, 18 h
Staphylococcus aureus [8] = test: Antimicrobial activity against methicillin-resistant Staphylococcus aureus 331/08 after 18 hrs by disc-diffusion method; conditions: 331/08, 18 h
Staphylococcus aureus [9] = test: Antimicrobial activity against methicillin-susceptible Staphylococcus aureus 319/08 after 18 hrs by disc-diffusion method; conditions: 319/08, 18 h
Staphylococcus aureus [10] = test: Antimicrobial activity against methicillin-susceptible Staphylococcus aureus 327/08 after 18 hrs by disc-diffusion method; conditions: 327/08, 18 h
[11] = tested on: Staphylococcus epidermidis; test: Antimicrobial activity against methicillin-resistant Staphylococcus epidermidis 293/08 after 18 hrs by disc-diffusion method; conditions: 293/08, 18 h
Staphylococcus aureus [12] = test: Antimicrobial activity against methicillin-resistant Staphylococcus aureus 335/08 after 18 hrs by disc-diffusion method; conditions: 335/08, 18 h
Staphylococcus aureus [13] = test: Antimicrobial activity against methicillin-susceptible Staphylococcus aureus 328/08 after 18 hrs by disc-diffusion method; conditions: 328/08, 18 h
Staphylococcus aureus [14] = test: Antimicrobial activity against methicillin-susceptible Staphylococcus aureus 339/08 after 18 hrs by disc-diffusion method; conditions: 339/08, 18 h
Staphylococcus aureus [15] = test: Antimicrobial activity against methicillin-resistant Staphylococcus aureus 308/08 after 18 hrs by disc-diffusion method; conditions: 308/08, 18 h
[16] = tested on: Staphylococcus epidermidis; test: Antimicrobial activity against methicillin-resistant Staphylococcus epidermidis 318/08 after 18 hrs by disc-diffusion method; conditions: 318/08, 18 h
Staphylococcus aureus [17] = test: Antimicrobial activity against methicillin-susceptible Staphylococcus aureus 338/08 after 18 hrs by disc-diffusion method; conditions: 338/08, 18 h
[18] = tested on: Staphylococcus epidermidis; test: Antimicrobial activity against methicillin-resistant Staphylococcus epidermidis 317/08 after 18 hrs by disc-diffusion method; conditions: 317/08, 18 h
Staphylococcus aureus [19] = test: Antimicrobial activity against methicillin-resistant Staphylococcus aureus 332/08 after 18 hrs by disc-diffusion method; conditions: 332/08, 18 h
Staphylococcus aureus [20] = test: Antimicrobial activity against methicillin-susceptible Staphylococcus aureus 322/08 after 18 hrs by disc-diffusion method; conditions: 322/08, 18 h
Staphylococcus aureus [21] = test: Antimicrobial activity against methicillin-susceptible Staphylococcus aureus 321/08 after 18 hrs by disc-diffusion method; conditions: 321/08, 18 h
Staphylococcus aureus [22] = test: Antimicrobial activity against methicillin-susceptible Staphylococcus aureus 320/08 after 18 hrs by disc-diffusion method; conditions: 320/08, 18 h
Staphylococcus aureus [23] = test: Antimicrobial activity against methicillin-resistant Staphylococcus aureus 329/08 after 18 hrs by disc-diffusion method; conditions: 329/08, 18 h
Staphylococcus aureus [24] = test: Antimicrobial activity against methicillin-susceptible Staphylococcus aureus 326/08 after 18 hrs by disc-diffusion method; conditions: 326/08, 18 h
[25] = tested on: Staphylococcus epidermidis; test: Antimicrobial activity against methicillin-resistant Staphylococcus epidermidis 291/08 after 18 hrs by disc-diffusion method; conditions: 291/08, 18 h
[26] = tested on: Staphylococcus epidermidis; test: Antimicrobial activity against methicillin-resistant Staphylococcus epidermidis 311/08 after 18 hrs by disc-diffusion method; conditions: 311/08, 18 h
[27] = tested on: Staphylococcus epidermidis; test: Antimicrobial activity against methicillin-resistant Staphylococcus epidermidis 289/08 after 18 hrs by disc-diffusion method; conditions: 289/08, 18 h
Staphylococcus aureus [28] = test: Antimicrobial activity against methicillin-resistant Staphylococcus aureus 309/08 after 18 hrs by disc-diffusion method; conditions: 309/08, 18 h
[29] = tested on: Staphylococcus epidermidis; test: Antimicrobial activity against methicillin-resistant Staphylococcus epidermidis 292/08 after 18 hrs by disc-diffusion method; conditions: 292/08, 18 h
[30] = tested on: Staphylococcus epidermidis; test: Antimicrobial activity against methicillin-resistant Staphylococcus epidermidis 315/08 after 18 hrs by disc-diffusion method; conditions: 315/08, 18 h

SMILES | MIC (Staphylococcus aureus [1]) | MIC (Staphylococcus aureus [2]) | MIC (Staphylococcus aureus [3]) | MIC [4] | MIC (Staphylococcus aureus [5]) | MIC [6] | MIC (Staphylococcus aureus [7]) | MIC (Staphylococcus aureus [8]) | MIC (Staphylococcus aureus [9]) | MIC (Staphylococcus aureus [10]) | MIC [11] | MIC (Staphylococcus aureus [12]) | MIC (Staphylococcus aureus [13]) | MIC (Staphylococcus aureus [14]) | MIC (Staphylococcus aureus [15]) | MIC [16] | MIC (Staphylococcus aureus [17]) | MIC [18] | MIC (Staphylococcus aureus [19]) | MIC (Staphylococcus aureus [20]) | other results
CC[C@@]1([C@H]2O[C@@H]([C@H]3O[C@@](O)(CO)[C@H](C)C[C@@H]3C)C[C@@H]2C)CC[C@@H]([C@]2(C)CC[C@]3(C[C@H](O)[C@@H](C)[C@@H]([C@@H](C)[C@@H](OC)[C@H](C)C(=O)Nc4ccccc4)O3)O2)O1 | 8.37 µM (≈ 6.24 µg/mL) | 8.37 µM (≈ 6.24 µg/mL) | 8.37 µM (≈ 6.24 µg/mL) | 16.8 µM (≈ 12.5 µg/mL) | 8.37 µM (≈ 6.24 µg/mL) | 8.37 µM (≈ 6.24 µg/mL) | 8.37 µM (≈ 6.24 µg/mL) | 8.37 µM (≈ 6.24 µg/mL) | 8.37 µM (≈ 6.24 µg/mL) | 8.37 µM (≈ 6.24 µg/mL) | 8.37 µM (≈ 6.24 µg/mL) | 8.37 µM (≈ 6.24 µg/mL) | 33.5 µM (≈ 25 µg/mL) | 33.5 µM (≈ 25 µg/mL) | 8.37 µM (≈ 6.24 µg/mL) | 33.5 µM (≈ 25 µg/mL) | 8.37 µM (≈ 6.24 µg/mL) | 8.37 µM (≈ 6.24 µg/mL) | 8.37 µM (≈ 6.24 µg/mL) | 16.8 µM (≈ 12.5 µg/mL) | MIC (Staphylococcus aureus [21]): 16.8 µM (≈ 12.5 µg/mL); MIC (Staphylococcus aureus [22]): 16.8 µM (≈ 12.5 µg/mL); MIC (Staphylococcus aureus [23]): 8.37 µM (≈ 6.24 µg/mL); MIC (Staphylococcus aureus [24]): 8.37 µM (≈ 6.24 µg/mL); MIC [25]: 8.37 µM (≈ 6.24 µg/mL); MIC [26]: 8.37 µM (≈ 6.24 µg/mL); MIC [27]: 8.37 µM (≈ 6.24 µg/mL); MIC (Staphylococcus aureus [28]): 8.37 µM (≈ 6.24 µg/mL); MIC [29]: 16.8 µM (≈ 12.5 µg/mL); MIC [30]: 8.37 µM (≈ 6.24 µg/mL)
CC[C@@]1([C@@H]2O[C@@H]([C@H]3O[C@@](O)(CO)[C@H](C)C[C@@H]3C)C[C@@H]2C)CC[C@H]([C@]2(C)CC[C@]3(C[C@H](O)[C@@H](C)[C@@H]([C@@H](C)[C@@H](OC)[C@H](C)C(=O)O)O3)O2)O1 [MONENSIN] | 1.49 µM (≈ 1 µg/mL) | 1.49 µM (≈ 1 µg/mL) | 1.49 µM (≈ 1 µg/mL) | 2.98 µM (≈ 2 µg/mL) | 1.49 µM (≈ 1 µg/mL) | 1.49 µM (≈ 1 µg/mL) | 2.98 µM (≈ 2 µg/mL) | 1.49 µM (≈ 1 µg/mL) | 2.98 µM (≈ 2 µg/mL) | 2.98 µM (≈ 2 µg/mL) | 1.49 µM (≈ 1 µg/mL) | 1.49 µM (≈ 1 µg/mL) | 2.98 µM (≈ 2 µg/mL) | 5.96 µM (≈ 4 µg/mL) | 2.98 µM (≈ 2 µg/mL) | 5.96 µM (≈ 4 µg/mL) | 2.98 µM (≈ 2 µg/mL) | 1.49 µM (≈ 1 µg/mL) | 1.49 µM (≈ 1 µg/mL) | 2.98 µM (≈ 2 µg/mL) | MIC (Staphylococcus aureus [21]): 2.98 µM (≈ 2 µg/mL); MIC (Staphylococcus aureus [22]): 2.98 µM (≈ 2 µg/mL); MIC (Staphylococcus aureus [23]): 2.98 µM (≈ 2 µg/mL); MIC (Staphylococcus aureus [24]): 2.98 µM (≈ 2 µg/mL); MIC [25]: 2.98 µM (≈ 2 µg/mL); MIC [26]: 1.49 µM (≈ 1 µg/mL); MIC [27]: 2.98 µM (≈ 2 µg/mL); MIC (Staphylococcus aureus [28]): 2.98 µM (≈ 2 µg/mL); MIC [29]: 2.98 µM (≈ 2 µg/mL); MIC [30]: 1.49 µM (≈ 1 µg/mL)
